Laboratory results from patent US6607710B1, “Bisphosphonic acid derivative and compound thereof labeled with radioactive nuclide” (Nihon Medi-Physics Co., Ltd., priority 1999, dated 2003).
“And” between values parts separate entries of the source, which are not always exact repeats. Equal entries are not always repeated.

Experiment: Determination of biodistribution of radiolabeled compounds in rats after caudal vein administration
Type: in vivo, SD strain rats
Settings: for Biodistribution, Blood / Biodistribution, Femur and Tibia / Biodistribution, Urine / Biodistribution, Kidney / Biodistribution, Liver: SD-rats female, n = 3, caudal vein
Description: SD strain rats (female, age in 8-9 weeks, n=3) were used with free access to water and food ad libitum, and anesthetized with Ravonal, (a trade name of thiopental sodium, manufactured by Tanabe Seiyaku Co., Ltd.), then the test sample solution was administered to the caudal vein. The test rats were killed by bleeding during the blood samples were taken from the abdominal aorta at each times of sampling after the administration. The organs of interest were excised. After measured the weights of these samples, the radioactivities were determined, and biodistributions were calculated. The results of determination of biodistribution relating to the labeled compounds obtained in Examples 1, 2 and 4 and the labeled compounds of methanediphosphonic acid (MDP) used as reference examples are shown in Tables 3 to 7. Determination results are indicated as %ID/g, and determination results of urine are indicated as %ID.

[1] = 15 Minutes after administration
[2] = 120 Minutes after administration

Row | Structure (SMILES) | Biodistribution, Blood [1] | Biodistribution, Femur and Tibia [1] | Biodistribution, Urine [1] | Biodistribution, Femur and Tibia [2] | Biodistribution, Urine [2] | Biodistribution, Kidney [1] [% ID/g] | Biodistribution, Liver [1] [% ID/g] | Biodistribution, Blood [2] [% ID/g] | Biodistribution, Kidney [2] [% ID/g] | Biodistribution, Liver [2] [% ID/g] | change of accumulation level to the bone (in words) (SD-rats, from 15 minutes to 120 minutes after the administration) | accumulation to the bone (in words) (SD-rats, summary of Tables 3-8) | blood clearance (in words) (SD-rats, summary of Tables 3-8) | urinary excretion (in words) (SD-rats, summary of Tables 3-8)
1 | O=C(O)CN(CCN(CC(=O)O)CC(=O)O)CCN(CC(=O)O)CC(=O)NCC(P(=O)(O)O)P(=O)(O)O [3,6-bis(carboxymethyl)-9-(((2,2-diphosphonoethyl)carbamoyl)m] [3,6-bis(carboxymethyl)-9-(((2,2-diphosphonoethyl)carbamoyl)methyl)-3,6,9-triazaundecanedicarboxylic acid] | 0.519 ± 0.025 % ID/g and 0.621 ± 0.239 % ID/g and 0.463 ± 0.056 % ID/g | 2.777 ± 0.311 % ID/g and 2.417 ± 0.495 % ID/g and 2.643 ± 0.182 % ID/g | 26.04 ± 9.29 % ID and 28.64 ± 5.55 % ID and 37.996 ± 5.927 % ID | 2.739 ± 0.385 % ID/g and 3.089 ± 0.340 % ID/g and 2.922 ± 0.187 % ID/g | 40.31 ± 9.02 % ID and 54.91 ± 1.96 % ID and 54.927 ± 4.073 % ID | – | – | – | – | – | – | – | – | –
2 | O=C(O)CNC(=O)CC(P(=O)(O)O)P(=O)(O)O (99mTc complex, metal not drawn) [N-(3,3-diphosphonopropionyl)glycine] | 0.599 ± 0.103 % ID/g | 3.014 ± 0.377 % ID/g | 29.69 ± 0.14 % ID | 3.552 ± 0.327 % ID/g | 48.15 ± 1.50 % ID | 3.225 ± 0.543 | 0.159 ± 0.009 | 0.089 ± 0.037 | 0.762 ± 0.279 | 0.068 ± 0.003 | – | – | – | –
3 | O=C(NCC(P(=O)(O)O)P(=O)(O)O)c1ccccc1I | 0.717 ± 0.159 % ID/g | 3.423 ± 0.302 % ID/g | 19.55 ± 0.72 % ID | 3.714 ± 0.474 % ID/g | 41.54 ± 4.19 % ID | 2.751 ± 0.951 | 0.495 ± 0.078 | 0.042 ± 0.006 | 1.070 ± 0.539 | 0.380 ± 0.037 | did not significantly vary | accumulated to the bone quickly | relatively rapid | rapidly excreted into urine
